Data set [1] is described as follows: Log P by HPLC on reversed phase columns (EEC directive 79/831 Annex V.A8). It is filed as physicochemical. How it is done:
In the above table, measurement of Log P values was performed according to EEC directive 79/831 Annex V.A8 by HPLC (High Performance Liquid Chromatography) on reversed phase columns with the following methods: • [^a] Log P value is determined by measurement of LC-UV, in an acidic range, with 0.1% formic acid in water and acetonitrile as eluent (linear gradient from 10% acetonitrile to 95% acetonitrile). • [^b] Log P value is determined by measurement of LC-UV, in a neutral range, with 0.001 molar ammonium acetate solution in water and acetonitrile as eluent (linear gradient from 10% acetonitrile to 95% acetonitrile). • [^c] Log P value is determined by measurement of LC-UV, in an acidic range, with 0.1% phosphoric acid and acetonitrile as eluent (linear gradient from 10% acetonitrile to 95% acetonitrile).
If more than one Log P value is available within the same method, all the values are given and separated by “+”.
Calibration was done with straight-chain alkan2-ones (with 3 to 16 carbon atoms) with known Log P values (measurement of Log P values using retention times with linear interpolation between successive alkanones). Lambda-max-values were determined using UV-spectra from 200 nm to 400 nm and the peak values of the chromatographic signals.

Data set [2] concerns salicylate responsive promoter sequence of the PR1 (pathogenesis-related protein I) gene (AT2G14610). Nature of the data set: Induction of defense gene expression in Arabidopsis thaliana (PR1 promoter-GFP reporter plants). The following applies: 72 h, 3rd day after spraying, mock treated leaves set as 1.00, read-out: relative fluorescence value; for fold induction at 75 ppm: 75 ppm of compound. In kind it is in vivo. How it is done:
Arabidopsis thaliana reporter plants containing the coding sequence of a green fluorescent protein (GFP) linked to the salicylate responsive promoter sequence of the PR1 (pathogenesis-related protein I) gene (AT2G14610) were grown for five days and then sprayed with compounds. On the 3rd day after spraying, plant fluorescence was assessed with a MacroFluo instrument from Leica Microsystems (Wetzlar, Germany). Fluorescences were quantified with the Meta-Morph Microscopy Automation & Image Analysis Software (Molecular Devices, Sunnyvale, Calif., United States).
Background fluorescence in mock treated leaves was set as 1.00.

The test system of data set [3] is Colletotrichum lindemuthianum. Nature of the data set: Colletotrichum lindemuthianum in vitro cell test. It is filed as cell-based. The following applies: 144 h, 20 ppm of active ingredient, 6 days incubation, read-out: efficacy (direct activity, inhibition of fungal growth). How it is done:
Solvent: DMSO Culture medium: 14.6 g anhydrous D-glucose (VWR), 7.1 g Mycological Peptone (Oxoid), 1.4 g granulated Yeast Extract (Merck), QSP 1 liter Inoculum: spores suspension Fungicides were solubilized in DMSO and the solution used to prepare the required range of concentrations. The final concentration of DMSO used in the assay was ≤1%. A spore suspension of C. lindemuthianum was prepared and diluted to the desired spore density. Fungicides were evaluated for their ability to inhibit spores germination and mycelium growth in liquid culture assay. The compounds were added in the desired concentration to the culture medium with spores. After 6 days incubation, fungi-toxicity of compounds was determined by spectrometric measurement of mycelium growth. Inhibition of fungal growth was determined by comparing the absorbance values in wells containing the fungicides with the absorbance in control wells without fungicides.

For data set [4], the system named is Xanthomonas campestris pv. campestris. Nature of the data set: Xanthomonas campestris pv. campestris in vitro cell test. In kind it is cell-based. The following applies: 20 ppm of active ingredient, 24 h incubation, read-out: efficacy (direct activity, inhibition of bacteria growth). How it is done: Solvent: DMSO Culture medium: LB broth medium (Luria Broth Miller) Sigma Inoculum: bacteria suspension Compounds were solubilized in DMSO and the solution used to prepare the required range of concentrations. The final concentration of DMSO used in the assay was ≤1%. Inoculum was prepared from a pre-culture of bacteria grown in liquid medium and diluted to the desired optical density (OD). Compounds were evaluated for their ability to inhibit bacteria growth in liquid culture assay. The compounds were added in the desired concentrations to culture medium containing the bacteria suspension. After 24 h of incubation, the efficacy of compounds was determined by spectrometric measurement of bacteria growth. Inhibition was determined by comparing the absorbance values in wells containing the compounds with the absorbance in control wells without active ingredients.

The test system of data set [5] is Colletotrichum lindemuthianum. Nature of the data set: In vivo preventive test on Colletotrichum lindemuthianum (Antrachnose on bean). The following applies: for pest or weed control at 500 ppm / pest or weed control at 31 ppm: Colletotrichum lindemuthianum, 144 h, bean, evaluated 6 days after inoculation, read-out: efficacy; for pest or weed control at 500 ppm: 500 ppm of active ingredient; for pest or weed control at 31 ppm: 31 ppm of active ingredient. How it is done:
The tested active ingredients were prepared by homogenization in a mixture of acetone/Dimethyl sulfoxide/Tween®, and then diluted with water to obtain the desired active material concentration. The young plants of bean were treated by spraying the active ingredient prepared as described above. Control plants were treated only with an aqueous solution of acetone/Dimethyl sulfoxide/Tween®.
After 72 hours, the plants were contaminated by spraying the leaves with an aqueous suspension of Colletotrichum lindemuthianum spores. The contaminated bean plants were incubated for 24 hours at 20° C. and at 100% relative humidity and then for 5 days at 20° C. and at 90% relative humidity.
The test was evaluated 6 days after the inoculation. 0% means an efficacy which corresponds to that of the control plants while an efficacy of 100% means that no disease was observed.
Compound CMP1 was tested in an in vivo preventive test on Colletotrichum lindemuthianum (Antrachnose on bean) in the same conditions as described in Example D.

The test system of another data set is Peronospora parasitica. The data set is described as follows: In vivo preventive test on Peronospora parasitica (crucifer downy mildew). The following applies: Hyaloperonospora parasitica, 120 h; 125 ppm of active ingredient; cabbage; evaluated 5 days after inoculation; read-out: efficacy. How it is done:
(§1) The tested active ingredients were prepared by homogenization in a mixture of acetone/Dimethyl sulfoxide/Tween®, and then diluted with water to obtain the desired active material concentration.
(§2) The young plants of cabbage were treated by spraying the active ingredient prepared as described above. Control plants were treated only with an aqueous solution of acetone/Dimethyl sulfoxide/Tween®.
After 72 hours, the plants were contaminated by spraying the leaves with an aqueous suspension of Peronospora parasitica spores. The contaminated cabbage plants were incubated for 5 days at 20° C. and at 100% relative humidity.
The test was evaluated 5 days after the inoculation. 0% means an efficacy which corresponds to that of the control plants while an efficacy of 100% means that no disease was observed.

Data set [6] deals with Xanthomonas campestris pv. campestris. Nature of the data set: In vivo preventive test on Xanthomonas campestris pv. campestris (black rot on cabbage). The following applies: for pest or weed control at 31 ppm / pest or weed control at 125 ppm: Xanthomonas campestris, cabbage, evaluated 8 or 10 days after inoculation, read-out: efficacy; for pest or weed control at 31 ppm: 31 ppm of active ingredient; for pest or weed control at 125 ppm: 125 ppm of active ingredient. How it is done:
as §1, §2
After 72 hours, the plants were contaminated by spraying the leaves with an aqueous bacteria suspension of Xanthomonas campestris pv. campestris. The contaminated cabbage plants were incubated for 8 or 10 days at 27° C. at 95% relative humidity.
The test was evaluated 8 or 10 days after the inoculation. 0% means an efficacy which corresponds to that of the control plants while an efficacy of 100% means that no disease was observed.
Compound CMP1 was tested in an in vivo preventive test on Xanthomonas campestris pv. campestris (black rot on cabbage) in the same conditions as described in Example F.

The next data set has as its system Uromyces appendiculatus. The data set is described as follows: In vivo preventive test on Uromyces appendiculatus (bean rust). The following applies: for pest or weed control at 31 ppm / pest or weed control at 125 ppm / pest or weed control at 500 ppm: Uromyces appendiculatus, 240 h, bean, evaluated 10 days after inoculation, read-out: efficacy; for pest or weed control at 31 ppm: 31 ppm of active ingredient; for pest or weed control at 125 ppm: 125 ppm of active ingredient; for pest or weed control at 500 ppm: 500 ppm of active ingredient. How it is done:
as §1
The young plants of bean were treated by spraying the active ingredient prepared as described above.
Control plants were treated only with an aqueous solution of acetone/Dimethyl sulfoxide/Tween®.
After 72 hours, the plants were contaminated by spraying the leaves with an aqueous suspension of Uromyces appendiculatus spores. The contaminated bean plants were incubated for 24 hours at 20° C. and at 100% relative humidity and then for 9 days at 20° C. and at 70-80% relative humidity.
The test was evaluated 10 days after the inoculation. 0% means an efficacy which corresponds to that of the control plants while an efficacy of 100% means that no disease was observed.
Compound CMP1 was tested in an in vivo preventive test on Uromyces appendiculatus (bean rust) in the same conditions as described in Example G.

Where [7] appears, read: reversed phase HPLC columns, method [a]: LC-UV, acidic range, 0.1% formic acid in water and acetonitrile as eluent.

Marks after values point to notes of the source that are not given here.

`Cc1c(C2=NC3(CC3)C(=O)O2)sc(Cl)c1Br` [I.11]: the chromatographic logP (in general, lipophilicity estimated from chromatographic retention) in data set [1] (setting [7]) was 4.39. Further, the fold induction at 75 ppm in data set [2] is above 2. The inhibition at 20 ppm in data set [3] and in data set [4] was at most 30% each time. The pest or weed control at 500 ppm (in data set [5]; in the data set with Uromyces appendiculatus) was 90 to 100% in each case. Besides, the pest or weed control at 125 ppm (in the data set on Peronospora parasitica; in data set [6]; in the data set with Uromyces appendiculatus) was 90 to 100% in each case. Besides, the figures for the pest or weed control at 31 ppm (in data set [6]; in the data set with Uromyces appendiculatus) were 70 to 79% and 80 to 89%, respectively.

Consider `O=C1OC(c2sc(Cl)c(Br)c2Br)=NC12CC2` [I.08], for which the chromatographic logP in data set [1] (setting [7]) was 4.12. In data set [2], the fold induction at 75 ppm is above 2. For the same compound, in data set [2], the fold induction at 300 ppm is above 2. The inhibition at 20 ppm in data set [3] and in data set [4] was at most 30% in each case. Besides, the pest or weed control at 500 ppm (in data set [5]; in the data set with Uromyces appendiculatus) was 90 to 100% throughout. Besides, the pest or weed control at 125 ppm with Peronospora parasitica fell in the range of 90 to 100%; in data set [6], 70 to 79%; with Uromyces appendiculatus it was 90 to 100%. The figures for the pest or weed control at 31 ppm (in data set [6]; in the data set with Uromyces appendiculatus) were 80 to 89% and 90 to 100%, respectively.

With `Cc1c(C2=NC3(CC3)C(=O)O2)sc(C#N)c1Br` [I.06, 3-bromo-4-methyl-5-(7-oxo-6-oxa-4-azaspiro[2.4]hept-4-en-5-yl)thiophene-2-carbonitrile], the chromatographic logP in data set [1] (given in preparation examples, method not marked) amounted to 3.37. Further, the fold induction at 75 ppm in data set [2] is above 2. For the same compound, the fold induction at 300 ppm in data set [2] was above 2. Further, the inhibition at 20 ppm in data set [3] and in data set [4] was at most 30% throughout. Besides, the pest or weed control at 500 ppm (in data set [5]; in the data set with Uromyces appendiculatus) was 90 to 100% each time. For the same compound, the values for the pest or weed control at 125 ppm (with Peronospora parasitica; in data set [6]; with Uromyces appendiculatus) were 90 to 100%, 90 to 100% and 70 to 79%, respectively. Besides, the values for the pest or weed control at 31 ppm (in data set [6]; in the data set on Uromyces appendiculatus) were 90 to 100% and 70 to 79%, respectively.

As for `O=C1OC(c2cc(Br)c(Br)s2)=NC12CC2` [CMP1, reference compound], the “Efficacy (%) at 31 ppm” value in data set [5] (31 ppm, conditions of Example D) was 19%; in data set [6] (31 ppm, arithmetic mean of 4 tests, conditions of Example F), 35* %; in the data set on Uromyces appendiculatus (31 ppm, arithmetic mean of 3 tests, conditions of Example G) it was 32* %. The values for the pest or weed control at 31 ppm (in data set [5]; in data set [6]; with Uromyces appendiculatus) were below 20%, below 40% and below 40%, respectively. Also, the “Efficacy (%) at 125 ppm” value in data set [6] (125 ppm, arithmetic mean of 4 tests, conditions of Example F) is listed as 37* %; in the data set with Uromyces appendiculatus (125 ppm, arithmetic mean of 3 tests, conditions of Example G), 42* %. Further, the pest or weed control at 125 ppm in data set [6] is below 40%; in the data set on Uromyces appendiculatus, 42%.

For the compound `O=C1OC(c2cc(Br)c(C(F)(F)F)s2)=NC12CC2` [I.26], the chromatographic logP in data set [1] (setting [7]) was 3.98. In addition, the pest or weed control at 500 ppm was in the range of 70 to 79% in data set [5] and 90 to 100% in the data set with Uromyces appendiculatus. The pest or weed control at 125 ppm with Peronospora parasitica was 90 to 100%. Also, the pest or weed control at 31 ppm in data set [6] was 70 to 79%.

As for `O=C1OC(c2sc(Br)c(Br)c2F)=NC12CCC2` [I.13], the chromatographic logP in data set [1] (setting [7]) stood at 4.02. The inhibition at 20 ppm in data set [3] and in data set [4] was at most 30% throughout. Also, the pest or weed control at 500 ppm (in data set [5]; with Uromyces appendiculatus) was 90 to 100% in each case. Besides, the pest or weed control at 125 ppm lay in the range of 90 to 100% in the data set with Peronospora parasitica, 80 to 89% in data set [6] and 90 to 100% in the data set on Uromyces appendiculatus. Besides, the pest or weed control at 31 ppm in data set [6] lay within 90 to 100%.

In data set [1] (setting [7]), `O=C1OC(c2sc(Cl)c(Cl)c2Br)=NC12CCC2` [I.22] displayed a chromatographic logP of 4.55. Moreover, the inhibition at 20 ppm in data set [3] and in data set [4] was at most 30% throughout. The pest or weed control at 31 ppm is 80 to 89% in data set [5] and 90 to 100% in the data set on Uromyces appendiculatus. Further, the pest or weed control at 125 ppm in the data set with Peronospora parasitica and with Uromyces appendiculatus was 90 to 100% throughout.

For the compound `O=C1OC(c2sc(Cl)c(Br)c2Cl)=NC12CCC2` [I.25], in data set [1] (setting [7]), the chromatographic logP amounted to 4.47. Also, the inhibition at 20 ppm in data set [3] and in data set [4] was at most 30% in each case. The pest or weed control at 31 ppm was 70 to 79% in data set [5] and 90 to 100% with Uromyces appendiculatus. Further, the pest or weed control at 125 ppm in the data set on Uromyces appendiculatus was 90 to 100%.

These data come from patent publication US12492196B2, “Thienyloxazolones and analogues” (Bayer Aktiengesellschaft, priority 2019, dated 2025).
